Experimental data as given in patent US20230023559A1, “ARYLMETHYLENE HETEROCYCLIC COMPOUNDS AS KV1.3 POTASSIUM SHAKER CHANNEL BLOCKERS” (D. E. Shaw Research, LLC, priority 2019, published 2023).

Legend:
hERG channel = hERG channel (Homo sapiens, UniProt Q12809); assay: hERG electrophysiology, automated whole-cell patch clamp (Patchliner)
Description: CHO-K1 cells stably expressing hERG were grown in Ham's F-12 Medium with Glutamine containing 10% heat-inactivated FBS, 1% Penicillin/Streptomycin, Hygromycin (100 μg/ml) and G418 (100 μg/ml). Cells were grown in culture flasks at 37° C. in a 5% CO2-humidified incubator.
The cells were bathed in an extracellular solution containing 140 mM NaCl, 4 mM KCl, 2 mM CaCl2), 1 mM MgCl2, 5 mM Glucose, 10 mM HEPES; pH adjusted to 7.4 with NaOH; 295-305 mOsm. The internal solution contained 50 mM KCl, 10 mM NaCl, 60 mM KF, 20 mM EGTA, 10 mM HEPES; pH adjusted to 7.2 with KOH; 285 mOsm. All compounds were dissolved in DMSO at 30 mM. Compound stock solutions were freshly diluted with external solution to concentrations of 30 nM, 100 nM, 300 nM, 1 μM, 3 μM, 10 μM, 30 μM and 100 μM. The highest content of DMSO (0.3%) was present in 100 μM.
The voltage protocol (see Table B) was designed to simulate voltage changes during a cardiac action potential with a 300 ms depolarization to +20 mV (analogous to the plateau phase of the cardiac action potential), a repolarization for 300 ms to −50 mV (inducing a tail current) and a final step to the holding potential of −80 mV. The pulse frequency was 0.3 Hz. Control (compound-free) and compound pulse trains for each compound concentration applied contained 70 pulses.
Whole cell current recordings and compound application were enabled by means of an automated patch clamp platform Patchliner (Nanion). EPC 10 patch clamp amplifier (HEKA) along with Patchmaster software (HEKA Elektronik Dr. Schulze GmbH) was used for data acquisition. Data were sampled at 10 kHz without filtering. Increasing compound concentrations were applied consecutively to the same cell without washouts in between.
AUC and PEAK values were obtained with Patchmaster (HEKA Elektronik Dr. Schulze GmbH). To determine IC50 the last single pulse in the pulse train corresponding to a given compound concentration was used. Obtained AUC and PEAK values in the presence of compound were normalized to control values in the absence of compound. Using Origin (OridinLab), IC50 was derived from data fit to Hill equation: Icompound/Icontrol=(100−A)/(1+([compound]/IC50)nH)+A, where IC50 is the concentration at which current inhibition is half-maximal, [compound] is the applied compound concentration, A is the fraction of current that is not blocked and nH is the Hill coefficient.

Kv1.3 potassium channel = biological target: T1, Kv1.3 potassium channel (Homo sapiens, UniProt P22001); assay: Kv1.3 potassium channel blocker activity, automated whole-cell patch clamp (Patchliner); assay type: cell-based; settings: CHO-K1 cells stably expressing Kv1.3; whole cell current inhibition; read-out: Kv1.3_IC50
T1 construct: expressed in transfected cells
T1 sequence (P22001 whole entry): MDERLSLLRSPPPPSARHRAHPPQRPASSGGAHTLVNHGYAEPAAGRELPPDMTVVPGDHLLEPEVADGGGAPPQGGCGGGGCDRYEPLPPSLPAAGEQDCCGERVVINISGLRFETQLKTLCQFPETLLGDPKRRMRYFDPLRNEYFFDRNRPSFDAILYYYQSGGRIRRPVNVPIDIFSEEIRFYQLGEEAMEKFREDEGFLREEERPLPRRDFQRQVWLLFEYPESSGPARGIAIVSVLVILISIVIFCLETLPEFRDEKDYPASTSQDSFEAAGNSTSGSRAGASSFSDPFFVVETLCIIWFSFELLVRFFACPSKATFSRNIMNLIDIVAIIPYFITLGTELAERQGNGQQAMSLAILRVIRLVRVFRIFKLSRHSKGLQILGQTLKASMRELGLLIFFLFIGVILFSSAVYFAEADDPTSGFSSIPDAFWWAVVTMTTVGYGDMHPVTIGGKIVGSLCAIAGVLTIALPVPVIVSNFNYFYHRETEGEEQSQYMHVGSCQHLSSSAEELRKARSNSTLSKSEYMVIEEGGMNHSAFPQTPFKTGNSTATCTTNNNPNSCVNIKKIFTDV
Summary of the method: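 Peak-current block was recorded on stable Kv1.3 CHO-K1 cells by automated patch clamp, stepping from a −90 mV holding potential to +40 mV for 100 ms at 0.1 Hz with 10 s breaks between trains. Online P/4 leak subtraction, 10 kHz sampling; compound exposure under 10 s per train.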

Chain of hERG channel (Q12809 whole entry): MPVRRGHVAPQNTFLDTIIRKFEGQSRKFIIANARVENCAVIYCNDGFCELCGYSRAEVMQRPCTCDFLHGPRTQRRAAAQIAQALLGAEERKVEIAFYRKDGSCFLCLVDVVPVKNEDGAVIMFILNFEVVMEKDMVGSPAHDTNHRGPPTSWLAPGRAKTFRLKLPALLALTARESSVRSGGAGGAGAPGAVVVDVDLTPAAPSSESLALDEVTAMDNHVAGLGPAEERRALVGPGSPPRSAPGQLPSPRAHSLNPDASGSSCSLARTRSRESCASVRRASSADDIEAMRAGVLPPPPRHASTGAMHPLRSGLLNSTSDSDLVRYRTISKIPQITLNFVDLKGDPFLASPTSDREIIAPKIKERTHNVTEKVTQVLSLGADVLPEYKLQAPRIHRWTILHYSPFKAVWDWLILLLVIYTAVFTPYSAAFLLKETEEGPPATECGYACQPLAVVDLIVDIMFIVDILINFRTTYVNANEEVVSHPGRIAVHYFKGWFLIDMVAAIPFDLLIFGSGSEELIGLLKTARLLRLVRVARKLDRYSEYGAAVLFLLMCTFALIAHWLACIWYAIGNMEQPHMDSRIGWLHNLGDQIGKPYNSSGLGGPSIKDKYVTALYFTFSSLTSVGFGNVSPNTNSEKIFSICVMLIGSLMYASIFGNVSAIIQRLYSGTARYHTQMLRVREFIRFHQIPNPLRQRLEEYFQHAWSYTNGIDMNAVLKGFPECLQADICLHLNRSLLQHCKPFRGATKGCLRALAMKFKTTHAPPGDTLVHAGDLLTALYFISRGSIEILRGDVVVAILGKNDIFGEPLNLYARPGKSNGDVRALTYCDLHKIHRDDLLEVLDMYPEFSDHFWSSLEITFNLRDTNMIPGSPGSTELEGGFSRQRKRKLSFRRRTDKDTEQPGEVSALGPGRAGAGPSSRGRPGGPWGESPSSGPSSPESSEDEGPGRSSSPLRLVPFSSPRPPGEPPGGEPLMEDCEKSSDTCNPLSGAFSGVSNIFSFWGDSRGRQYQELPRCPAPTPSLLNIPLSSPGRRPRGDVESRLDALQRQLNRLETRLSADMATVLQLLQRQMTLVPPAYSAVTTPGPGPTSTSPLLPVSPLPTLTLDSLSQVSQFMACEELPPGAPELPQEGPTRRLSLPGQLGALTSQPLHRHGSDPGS

IC50 (Kv1.3 potassium channel)	Compound	IC50 (hERG channel)
< 500 nM	C[C@@H](O)[C@H](O)C(=O)N1CCC([C@@H](N)c2cc(Cl)c(Cl)cc2O)CC1 [Compound 208, 1-(4-((R)-amino(4,5-dichloro-2-hydroxyphenyl)methyl)piperidin-1-yl)-2,3-dihydroxybutan-1-one trifluoroacetic acid]	> 30 µM
< 500 nM	N[C@@H](c1cc(Cl)c(Cl)cc1O)C1CCN(C(=O)NCCO)CC1 [Compound 209, 4-[(R)-amino(4,5-dichloro-2-hydroxyphenyl)methyl]-N-(2-hydroxyethyl)piperidine-1-carboxamide Trifluoroacetic Acid]	> 30 µM
< 500 nM	Nc1[nH]ncc1C(=O)N1CCC([C@@H](N)c2cc(Cl)c(Cl)cc2O)CC1 [Compound 211, 2-[(R)-amino[1-(5-amino-1H-pyrazole-4-carbonyl)piperidin-4-yl]methyl]-4,5-dichlorophenol trifluoroacetic acid]	> 30 µM
< 500 nM	N[C@@H](c1cc(Cl)c(Cl)cc1O)C1CCN(C(=O)C2CC(O)(CO)C2)CC1 (stereo partly drawn) [Compound 213, 2-[(R)-amino([1-[3-hydroxy-3-(hydroxymethyl)cyclobutane-carbonyl]piperidin-4-yl])methyl]-4,5-dichlorophenol trifluoroacetic acid]	> 30 µM
< 10000 nM	CN1C(=O)CC[C@@H]1C(=O)N1CCC([C@@H](N)c2cc(Cl)c(Cl)cc2O)CC1 [Compound 216, (5R)-5-[4-[(R)-amino(4,5-dichloro-2-hydroxyphenyl)methyl]piperidine-1-carbonyl]-1-methylpyrrolidin-2-one]	> 30 µM
< 500 nM	N[C@@H](c1cc(Cl)c(Cl)cc1O)C1CCN(C(=O)C2(O)CNC2)CC1 [Compound 219, 3-[4-[(R)-amino(4,5-dichloro-2-hydroxyphenyl)methyl]piperidine-1-carbonyl]azetidin-3-ol Trifluoroacetic Acid]	> 30 µM
< 500 nM	N[C@@H](c1cc(Cl)c(Cl)cc1O)C1CCN(C(=O)N2CC(O)(CO)C2)CC1 [Compound 220, 1-[4-[(R)-amino(4,5-dichloro-2-hydroxyphenyl)methyl]piperidine-1-carbonyl]-3-(hydroxymethyl)azetidin-3-ol]	> 30 µM
< 500 nM	N[C@@H](c1cc(Cl)c(Cl)cc1O)C1CCN(C(=O)C2CNC(=O)C2)CC1 (stereo partly drawn) [Compound 223, 4-[4-[(R)-amino(4,5-dichloro-2-hydroxyphenyl)methyl]piperidine-1-carbonyl] pyrrolidin-2-one trifluoroacetic acid]	> 30 µM
< 500 nM	N[C@@H](c1cc(Cl)c(Cl)cc1O)C1CCN(C(=O)[C@@H]2CNC(=O)C2)CC1 [Compound 224, (4S)-4-[4-[(R)-amino(4,5-dichloro-2-hydroxyphenyl)methyl]piperidine-1-carbonyl] pyrrolidin-2-one trifluoroacetic acid]	> 30 µM
< 500 nM	N[C@@H](c1cc(Cl)c(CF)cc1O)C1CCN(C(=O)[C@H](O)CO)CC1 [Compound 226, (2R)-1-[4-[(R)-amino[5-chloro-4-(fluoromethyl)-2-hydroxyphenyl]methyl]piperidin-1-yl]-2,3-dihydroxypropan-1-one Trifluoroacetic Acid]	> 30 µM
< 500 nM	Cc1cc(O)c([C@H](N)C2CCN(C(=O)c3ccc(=O)[nH]c3)CC2)cc1Cl [Compound 228, 5-[4-[(R)-amino(5-chloro-2-hydroxy-4-methylphenyl)methyl]piperidine-1-carbonyl]-1H-pyridin-2-one]	> 30 µM
< 500 nM	N[C@@H](c1cc(Cl)c(Cl)cc1O)C1CCN(C(=O)C2CNC(=O)CO2)CC1 (stereo partly drawn) [Compound 231, 6-[4-[(R)-amino(4,5-dichloro-2-hydroxyphenyl)methyl]piperidine-1-carbonyl]morpholin-3-one]	> 30 µM
